Reference: article PMC7367283, “A PIP2 substitute mediates voltage sensor-pore coupling in KCNQ activation” (Communications Biology, 2020)
Several values for one entry are separate records, joined by “and”; a condition that tells them apart may be missing. Equal values may be shown once.

Tests used:
[1] = system: guinea pig ventricular myocytes; test: Action potential recording in ventricular myocytes with moxifloxacin-prolonged (LQT) action potentials; assay type: cell-based; set-up: actional potential duration (APD), Fig. 7h: unit not given here; conditions: for actional potential duration (APD), Fig. 7h: Moxi-Group, individual cells
Procedure: Fig. 7 Effects of CP1 on IKs and action potentials in cardiomyocytes. a IKs currents in guinea pig ventricular myocytes in the absence and presence of 30 µM CP1 in the whole-cell patch-clamp configuration. Holding potential: −40 mV; testing potentials: −20 to +60 mV with 10-mV increment; returning potential: −20 mV. […] Guinea pig ventricular myocytes were first perfused with 10 µM CP1 and 10 µM chromanol. After APD reached steady state, 10 µM CP1 was constitutively perfused alone. Last, CP1 was washed out for near-full reversal of APD shortening. g Effects of 0.2 µM CP1 on LQT action potentials. To mimic the LQT, 100 µM moxifloxacin was applied 2 h before the treatment of CP1. h Change of action potential duration after application of different [CP1]s (n = 5–7). Tukey–Kramer ANOVA test was used to compare control cells in different CP1 concentration, # is significant at P < 0.05. Unpaired two-tailed Student t tests were used to compare control and moxifloxacin cells at different CP1 concentration: * is significant at P < 0.05.
In ventricular myocytes, the duration and the morphology of action potentials are determined by various ion channels. Mutations in many of these channels and drugs that modify channel functions, such as an increase in inward Na^+ currents or decrease in outward K^+ currents, may lead to a prolonged action potential duration, which results in an inherited or acquired long QT syndrome that predisposes afflicted patients to cardiac arrhythmia. An enhancement of the outward IKs current may be able to counter these mutations or drug effects, and restore the action potential duration to more normal values. […] Next, we used an IKr blocker (Moxifloxacin, Moxi) to prolong action potentials and then applied various concentrations of CP1.
The use of guinea pigs was approved by the Stony Brook University Institutional Animal Care and Use Committee. Single ventricular myocytes were acutely enzymatically isolated from guinea pig heart as previously described. Guinea pigs, weighing 300–500 g, were sacrificed by peritoneal injection of sodium pentobarbitone (1 ml, 390 mg/ml). The isolated cells were stored in KB solution containing (in mM) 83 KCl, 30 K2HPO4, 5 MgSO4, 5 Na pyruvate, 5 β-OH-butyric acid, 20 creatine, 20 taurine, 10 glucose, and 0.5 EGTA, pH 7.2.
Action potentials were recorded with whole-cell patch-clamp recording techniques. Current-clamp configuration was used. Freshly isolated guinea pig cardiac myocytes were placed at 1 Hz with a stimulus of 180-pA amplitude and 10-mS duration. The APD was determined at 90% repolarization. Several minutes were allowed for the APD to reach steady state before data were collected. Typical Tyrode mimic AP Solution for action potential recording was used. The bath solution is composed of (in mM) 140 NaCl, 3 KCl, 1 MgCl2, 1.8 CaCl2, 10 HEPES, and 10 Glucose, pH 7.4. The pipette solution is composed of (in mM) 115 K-aspartic acid, 35 KOH, 3 MgCl2, 10 HEPES, 11 EGTA, 5 Glucose, and 3 MgATP, pH 7.4.

KCNQ1 = KCNQ1 (Homo sapiens, UniProt P51787); test: KCNQ1 co-expressed with CiVSP (PIP2 depletion), two-electrode voltage clamp in Xenopus oocytes; assay type: cell-based; conditions: ~10 µM CP1 injected into the oocyte; pulses to +60 mV
Source text: We co-expressed KCNQ1 with the voltage-dependent lipid phosphatase CiVSP[44] in Xenopus oocytes and recorded KCNQ1 currents using two-electrode voltage clamp with consecutive depolarizing voltage pulses. […] To more directly test CP1 effects, we applied CP1 to the intracellular side of the inside-out membrane patch that expressed IKs channels.

Structure (SMILES): O=S(=O)([O-])Oc1c(-c2sc3c(ccc4cccc(Cl)c43)c2OS(=O)(=O)[O-])[nH]c2ccc(Br)cc12.[Na+].[Na+] [CP1, DISODIUM 5-BROMO-2-[9-CHLORO-3-(SULFONATOOXY) NAPHTHO [1,2-B] THIEN-2-YL]-1H-INDOL-3-YL SULFATE]
- action potential duration ([1]; 0.2 µM CP1, 100 µM moxifloxacin applied 2 h before): return the action potential duration back to normal
- action potential duration ([1]; 0.6 and 6 µM CP1, moxifloxacin): reduced Moxifloxacin-induced action potential prolongation
- actional potential duration (APD), Fig. 7h ([1]; 0.2 µM CP1): 628 and 590 and 655 and 646 and 548 and 586
- actional potential duration (APD), Fig. 7h ([1]; 0.6 µM CP1): 549 and 521 and 579 and 388 and 495
- actional potential duration (APD), Fig. 7h ([1]; 6 µM CP1): 393 and 380 and 396 and 407 and 426 and 406
- KCNQ1 currents after PIP2 depletion (KCNQ1): currents increased with consecutive voltage pulses
